Experimental data from the supplement of paper PMC10307832.

Legend:
Assay in all cases: relative viability (nuclei count vs DMSO), 5 days (fraction); higher = more cells survive
[1] = system: BEN
Summary of the method: (§1)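 Relative viability equals treated-well nuclei counts divided by vehicle-well nuclei counts. Counts came from 4× images of lung cancer cell lines grown in 1536-well plates for 5 days after pin-tool dosing on the day after seeding. Dosing used one drug alone or a fixed anchor-drug dose plus five library-drug doses (not always all listed) in √10 steps, and values are medians of duplicate plates.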

[2] = system: NCI-H838
Summary of the method: as §1

[3] = system: LCLC-97TM1
Summary of the method: as §1

[4] = system: HOP-62
Summary of the method: as §1

[5] = system: LOU-NH91
Summary of the method: as §1

[6] = system: NCI-H1355
Summary of the method: as §1

[7] = system: NCI-H1651
Summary of the method: as §1

[8] = system: SK-LU-1
Summary of the method: as §1

[9] = system: SW 1573
Summary of the method: as §1

[10] = system: 201T
Summary of the method: as §1

[11] = system: NCI-H3122
Summary of the method: as §1

[12] = system: NCI-H441
Summary of the method: as §1

[13] = system: NCI-H1915
Summary of the method: as §1

[14] = system: NCI-H2347
Summary of the method: as §1

[15] = system: NCI-H650
Summary of the method: as §1

[16] = system: CAL-12T
Summary of the method: as §1

[17] = system: NCI-H1563
Summary of the method: as §1

[18] = system: NCI-H322M
Summary of the method: as §1

[19] = system: HCC-78
Summary of the method: as §1

[20] = system: NCI-H1395
Summary of the method: as §1

[21] = system: NCI-H2126
Summary of the method: as §1

[22] = system: NCI-H1944
Summary of the method: as §1

[23] = system: NCI-H1793
Summary of the method: as §1

## Cc1cn(-c2cc(NC(=O)c3ccc(C)c(Nc4nccc(-c5cccnc5)n4)c3)cc(C(F)(F)F)c2)cn1 [Nilotinib] + CS(=O)(=O)N1CCN(Cc2cc3nc(-c4cccc5[nH]ncc45)nc(N4CCOCC4)c3s2)CC1 [Pictilisib] (partner 1 µM)
[1]; first compound 0.001 µM
  relative viability: 0.588
[1]; first compound 0.003162 µM
  relative viability: 0.552
[1]; first compound 0.01 µM
  relative viability: 0.574
[1]; first compound 0.1 µM
  relative viability: 0.556
[2]; first compound 0.001 µM
  relative viability: 0.408
[2]; first compound 0.003162 µM
  relative viability: 0.491
[2]; first compound 0.01 µM
  relative viability: 0.335
[2]; first compound 0.03162 µM
  relative viability: 0.41
[2]; first compound 0.1 µM
  relative viability: 0.336
[3]; first compound 0.001 µM
  relative viability: 0.184
[3]; first compound 0.003162 µM
  relative viability: 0.213
[3]; first compound 0.01 µM
  relative viability: 0.16
[3]; first compound 0.03162 µM
  relative viability: 0.167
[3]; first compound 0.1 µM
  relative viability: 0.123
[4]; first compound 0.001 µM
  relative viability: 0.539
[4]; first compound 0.003162 µM
  relative viability: 0.902
[4]; first compound 0.01 µM
  relative viability: 0.587
[4]; first compound 0.03162 µM
  relative viability: 0.63
[4]; first compound 0.1 µM
  relative viability: 0.401
[5]; first compound 0.001 µM
  relative viability: 0.548
[5]; first compound 0.003162 µM
  relative viability: 0.537
[5]; first compound 0.01 µM
  relative viability: 0.543
[5]; first compound 0.03162 µM
  relative viability: 0.483
[5]; first compound 0.1 µM
  relative viability: 0.54
[6]; first compound 0.001 µM
  relative viability: 0.399
[6]; first compound 0.003162 µM
  relative viability: 0.468
[6]; first compound 0.01 µM
  relative viability: 0.371
[6]; first compound 0.03162 µM
  relative viability: 0.421
[6]; first compound 0.1 µM
  relative viability: 0.19
[7]; first compound 0.001 µM
  relative viability: 0.576
[7]; first compound 0.003162 µM
  relative viability: 0.619
[7]; first compound 0.01 µM
  relative viability: 0.638
[7]; first compound 0.03162 µM
  relative viability: 0.568
[7]; first compound 0.1 µM
  relative viability: 0.308
[8]; first compound 0.001 µM
  relative viability: 0.499
[8]; first compound 0.003162 µM
  relative viability: 0.526
[8]; first compound 0.01 µM
  relative viability: 0.563
[8]; first compound 0.03162 µM
  relative viability: 0.366
[8]; first compound 0.1 µM
  relative viability: 0.499
[9]; first compound 0.001 µM
  relative viability: 0.486
[9]; first compound 0.003162 µM
  relative viability: 0.652
[9]; first compound 0.01 µM
  relative viability: 0.5
[9]; first compound 0.03162 µM
  relative viability: 0.427
[9]; first compound 0.1 µM
  relative viability: 0.588
[10]; first compound 0.001 µM
  relative viability: 0.732
[10]; first compound 0.003162 µM
  relative viability: 0.742
[10]; first compound 0.01 µM
  relative viability: 0.531
[10]; first compound 0.1 µM
  relative viability: 0.459
[11]; first compound 0.001 µM
  relative viability: 0.666
[11]; first compound 0.003162 µM
  relative viability: 0.846
[11]; first compound 0.01 µM
  relative viability: 0.808
[11]; first compound 0.03162 µM
  relative viability: 0.473
[11]; first compound 0.1 µM
  relative viability: 0.436
[12]; first compound 0.001 µM
  relative viability: 0.371
[12]; first compound 0.003162 µM
  relative viability: 0.576
[12]; first compound 0.01 µM
  relative viability: 0.532
[12]; first compound 0.1 µM
  relative viability: 0.305
[13]; first compound 0.001 µM
  relative viability: 0.958
[13]; first compound 0.003162 µM
  relative viability: 1.02
[13]; first compound 0.01 µM
  relative viability: 0.903
[13]; first compound 0.03162 µM
  relative viability: 0.993
[13]; first compound 0.1 µM
  relative viability: 0.408
[14]; first compound 0.001 µM
  relative viability: 0.644
[14]; first compound 0.003162 µM
  relative viability: 0.679
[14]; first compound 0.01 µM
  relative viability: 0.717
[14]; first compound 0.03162 µM
  relative viability: 0.635
[14]; first compound 0.1 µM
  relative viability: 0.401
[15]; first compound 0.001 µM
  relative viability: 0.817
[15]; first compound 0.003162 µM
  relative viability: 0.775
[15]; first compound 0.01 µM
  relative viability: 0.841
[15]; first compound 0.03162 µM
  relative viability: 0.853
[15]; first compound 0.1 µM
  relative viability: 0.767
[16]; first compound 0.001 µM
  relative viability: 0.45
[16]; first compound 0.01 µM
  relative viability: 0.354
[16]; first compound 0.03162 µM
  relative viability: 0.307
[16]; first compound 0.1 µM
  relative viability: 0.398
[17]; first compound 0.001 µM
  relative viability: 0.553
[17]; first compound 0.003162 µM
  relative viability: 0.608
[17]; first compound 0.01 µM
  relative viability: 0.649
[17]; first compound 0.03162 µM
  relative viability: 0.602
[17]; first compound 0.1 µM
  relative viability: 0.46
[18]; first compound 0.001 µM
  relative viability: 0.651
[18]; first compound 0.003162 µM
  relative viability: 0.503
[18]; first compound 0.03162 µM
  relative viability: 0.529
[18]; first compound 0.1 µM
  relative viability: 0.528
[19]; first compound 0.001 µM
  relative viability: 0.211
[19]; first compound 0.003162 µM
  relative viability: 0.178
[19]; first compound 0.01 µM
  relative viability: 0.198
[19]; first compound 0.03162 µM
  relative viability: 0.202
[19]; first compound 0.1 µM
  relative viability: 0.224
[20]; first compound 0.001 µM
  relative viability: 0.711
[20]; first compound 0.003162 µM
  relative viability: 0.581
[20]; first compound 0.01 µM
  relative viability: 0.566
[20]; first compound 0.03162 µM
  relative viability: 0.552
[20]; first compound 0.1 µM
  relative viability: 0.401
[21]; first compound 0.001 µM
  relative viability: 0.494
[21]; first compound 0.003162 µM
  relative viability: 0.501
[21]; first compound 0.01 µM
  relative viability: 0.393
[21]; first compound 0.03162 µM
  relative viability: 0.546
[21]; first compound 0.1 µM
  relative viability: 0.378
[22]; first compound 0.001 µM
  relative viability: 0.355
[22]; first compound 0.003162 µM
  relative viability: 0.342
[22]; first compound 0.01 µM
  relative viability: 0.358
[22]; first compound 0.03162 µM
  relative viability: 0.345
[22]; first compound 0.1 µM
  relative viability: 0.234
[23]; first compound 0.003162 µM
  relative viability: 0.32
[23]; first compound 0.01 µM
  relative viability: 0.31
[23]; first compound 0.03162 µM
  relative viability: 0.31
[23]; first compound 0.1 µM
  relative viability: 0.235
